The values that follow come from PMC10060162, “Structural basis of mitochondrial membrane bending by the I–II–III2–IV2 supercomplex” (Nature, 2023).

Test [1] has as its target T1, NDUTT3 (Tetrahymena thermophila, UniProt I7LUQ4).
T1 construct: gene TTHERM_00268000; native matrix-arm subunit of complex I within supercomplex, digitonin
T1 sequence (I7LUQ4 1-311): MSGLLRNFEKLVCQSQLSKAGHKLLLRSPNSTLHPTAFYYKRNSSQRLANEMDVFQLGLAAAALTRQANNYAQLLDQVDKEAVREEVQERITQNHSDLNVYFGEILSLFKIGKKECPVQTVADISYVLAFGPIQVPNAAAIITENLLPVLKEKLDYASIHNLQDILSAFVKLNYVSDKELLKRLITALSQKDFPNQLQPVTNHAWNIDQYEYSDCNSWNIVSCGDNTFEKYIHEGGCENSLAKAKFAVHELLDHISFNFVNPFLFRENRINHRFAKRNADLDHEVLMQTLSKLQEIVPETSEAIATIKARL
The test can be described thus: cryo-EM structure. The test is classed as binding. Particulars: co-purified native ligand.

In test [2] the target is T2, NDUFA9 (Tetrahymena thermophila, UniProt I7MLH2).
T2 construct: gene TTHERM_00557760; native subunit of complex I within supercomplex, digitonin
T2 sequence (I7MLH2 27-362): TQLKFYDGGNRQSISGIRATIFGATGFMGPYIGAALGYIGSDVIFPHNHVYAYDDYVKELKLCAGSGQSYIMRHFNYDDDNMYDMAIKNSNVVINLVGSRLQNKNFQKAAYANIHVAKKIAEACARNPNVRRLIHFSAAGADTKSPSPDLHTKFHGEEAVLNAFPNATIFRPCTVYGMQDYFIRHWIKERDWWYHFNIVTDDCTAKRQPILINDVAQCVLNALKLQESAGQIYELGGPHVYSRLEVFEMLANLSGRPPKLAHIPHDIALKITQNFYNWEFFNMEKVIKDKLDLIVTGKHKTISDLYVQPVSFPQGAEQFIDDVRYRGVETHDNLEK
Put plainly: cryo-EM structure. The test is classed as binding. As to conditions: co-purified; close to the CI Q-tunnel.

Test [3] addresses T3, COB (CIII2) (Tetrahymena thermophila, UniProt Q950Z1).
T3 construct: native; mitochondria-encoded subunit in complex III dimer within supercomplex, digitonin
T3 sequence (Q950Z1 1-426): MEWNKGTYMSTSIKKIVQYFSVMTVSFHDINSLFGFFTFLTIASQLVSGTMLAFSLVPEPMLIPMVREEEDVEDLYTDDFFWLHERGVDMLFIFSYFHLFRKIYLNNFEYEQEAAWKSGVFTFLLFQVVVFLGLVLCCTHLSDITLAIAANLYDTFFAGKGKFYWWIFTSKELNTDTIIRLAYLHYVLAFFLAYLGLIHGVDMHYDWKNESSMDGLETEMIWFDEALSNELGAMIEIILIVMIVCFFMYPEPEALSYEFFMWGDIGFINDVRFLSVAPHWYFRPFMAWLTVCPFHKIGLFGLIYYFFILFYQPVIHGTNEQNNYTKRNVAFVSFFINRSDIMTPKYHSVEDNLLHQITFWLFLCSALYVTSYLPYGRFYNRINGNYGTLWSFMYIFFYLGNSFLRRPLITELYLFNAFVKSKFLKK
The test can be described thus: cryo-EM structure. The test is classed as binding. Particulars: co-purified; Qi site near haem bH (or semiquinone); second site between the two haem bL.

The target in test [4] is T4, SDHA (CII) (Tetrahymena thermophila, UniProt Q23DI3).
T4 construct: gene TTHERM_00047080; native complex II in I-II-III2-IV2 supercomplex from mitochondria, digitonin; with Succinate dehydrogenase [ubiquinone] iron-sulfur subunit, mitochondrial; Succinate dehydrogenase membrane anchor subunit SDHC; Succinate dehydrogenase membrane anchor subunit SDHD (mitochondria-encoded)
T4 sequence (Q23DI3 1-636): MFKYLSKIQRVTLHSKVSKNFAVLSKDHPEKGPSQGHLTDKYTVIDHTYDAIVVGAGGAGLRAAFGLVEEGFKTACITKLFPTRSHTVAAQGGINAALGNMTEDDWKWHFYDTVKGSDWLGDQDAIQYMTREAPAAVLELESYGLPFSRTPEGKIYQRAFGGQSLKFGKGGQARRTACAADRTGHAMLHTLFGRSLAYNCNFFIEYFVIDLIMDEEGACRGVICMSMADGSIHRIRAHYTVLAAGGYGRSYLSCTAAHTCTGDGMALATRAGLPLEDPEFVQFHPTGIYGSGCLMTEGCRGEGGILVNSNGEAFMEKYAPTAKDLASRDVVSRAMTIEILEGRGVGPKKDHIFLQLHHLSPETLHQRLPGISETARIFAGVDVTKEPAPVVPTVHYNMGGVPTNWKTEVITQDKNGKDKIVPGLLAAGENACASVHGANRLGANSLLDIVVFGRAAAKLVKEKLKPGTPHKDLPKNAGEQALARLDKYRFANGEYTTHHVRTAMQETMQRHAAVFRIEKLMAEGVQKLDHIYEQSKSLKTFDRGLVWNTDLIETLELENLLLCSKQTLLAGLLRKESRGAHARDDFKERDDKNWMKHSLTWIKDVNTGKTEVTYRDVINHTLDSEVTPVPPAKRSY
Put plainly: cryo-EM structure. The test is classed as binding. As to conditions: covalent.

The target of test [5] is complex III monomer (cytochrome bc1) of Tetrahymena thermophila (Tetrahymena thermophila). The test can be described thus: cryo-EM structure; single-particle cryo-EM of the native supercomplex co-purified from T. thermophila mitochondria; buffer D (25 mM HEPES-KOH pH 7.5, 25 mM KCl, 5 mM MgCl2, 0.1% w/v digitonin); 2.9 Å overall, masked refinements 2.6-3.0 Å.
The target in test [6] is complex IV monomer (cytochrome c oxidase) of Tetrahymena thermophila (Tetrahymena thermophila) (UniProt Q950Y7). The description is as above.

Turning to `Nc1ncnc2c1ncn2[C@@H]1O[C@H](COP(=O)(O)OP(=O)(O)O)[C@@H](O)[C@H]1O` [ADP], the cryo-EM structure entry in test [1] was “subunits NDUTT1 with UDP and NDUTT3 with ADP”.
In the case of `NC(=O)C1=CN([C@@H]2O[C@H](COP(=O)(O)OP(=O)(O)OC[C@H]3O[C@@H](n4cnc5c(N)ncnc54)[C@H](OP(=O)(O)O)[C@@H]3O)[C@@H](O)[C@H]2O)C=CC1` [NADPH], in test [2], the cryo-EM structure entry was “NDUFA9 contains a bound NADPH molecule close to the CI Q-tunnel”.
As for `COC1=C(OC)C(=O)C(C/C=C(\C)CC/C=C(\C)CC/C=C(\C)CC/C=C(\C)CC/C=C(\C)CC/C=C(\C)CC/C=C(\C)CCC=C(C)C)=C(C)C1=O` [UQ, ubiquinone], in test [3], the cryo-EM structure entry was “density for a bound (semi)-UQ was observed in the Qi site”.
For the compound `Cc1cc2nc3c(=O)[nH]c(=O)nc-3n(C[C@H](O)[C@H](O)[C@H](O)COP(=O)(O)OP(=O)(O)OC[C@H]3O[C@@H](n4cnc5c(N)ncnc54)[C@H](O)[C@@H]3O)c2cc1C` [flavin adenine dinucleotide], the cryo-EM structure entry in test [4] was “SDHA and SDHB forms a conserved head region, containing both the covalently bound FAD”.
With “complex III monomer (cytochrome bc1) of Tetrahymena thermophila”, in test [5], the stoichiometry N is 2.
In test [6], “complex IV monomer (cytochrome c oxidase) of Tetrahymena thermophila (from UniProt Q950Y7 1-453; Q950Y6 1-594)” came in with a stoichiometry N of 2.

What is called stoichiometry N is a count of units in the complex or per binding partner.
